Test results reported in patent US11045510B2, “Combination of aqueous extracts of watercress and nasturtium and ATP for use in the treatment of alopecia” (PIERRE FABRE DERMO-COSMETIQUE, priority 2017, dated 2021).

Assays:
[1] = test system: hepatocyte growth factor (HGF) released by dermal papilla cells; test: HGF release by dermal papilla cells derived from human hair follicles; format: cell-based; settings: ATP 30 μM
Experimental: (§1) The goal of this study is to evaluate the effects of the combination of an aqueous extract of watercress and of an aqueous extract of Indian cress, combined with ATP on the release of 2 anagen phase markers, hepatocyte growth factor (HGF) and keratinocyte growth factor (KGF), released by dermal papilla cells. These two growth factors have a stimulatory activity on hair growth by activating specific signalling pathways.
(§2) The studies were carried out on dermal papilla cells derived from human hair follicles from three different donors. The cells are seeded in 24-well plates and cultured for 24 h with the necessary supplements. The cells are then treated for 24 h with the products, i.e., either with ATP (30 μM), with Cressatine®, i.e., an aqueous extract of watercress and an aqueous extract of Indian cress (140 μg/ml), or with the combination ATP-Cressatine® at the same concentrations as before. The supernatants were collected for subsequent analysis of markers HGF and KGF. HGF is measured using set HCCBP1MAG-58K from EMD Millipore and KGF is measured by using set KGF/FGF-7 DuoSet ELISA DY251 from R&D Systems.

[2] = test system: keratinocyte growth factor (KGF) released by dermal papilla cells; test: KGF release by dermal papilla cells derived from human hair follicles; format: cell-based; settings: ATP 30 μM
Experimental: as §1, §2

[3] = cells treated for 24 h, Cressatine 140 μg/ml, combination at same concentrations, average of 3 donors

Q: Which results are given for `Nc1ncnc2c1ncn2[C@@H]1O[C@H](COP(=O)(O)OP(=O)(O)OP(=O)(O)O)[C@@H](O)[C@H]1O` [ATP, adenosine 5′-triphosphate]?
A: HGF [1, 3]: 92 pg/mL; modulation of the production of HGF (in words) ([1]; versus control, 24 h): does not significantly modulate; KGF [2, 3]: 37 pg/mL; higher secretion of KGF ([2]; versus control, 24 h): 50%
